Laboratory results: patent publication US7534436B2, “Peptide fragments of the harp factor inhibiting angiogenesis” (Centre National de la Recherche Scientifique (C.N.R.S.), priority 2002, dated 2009)
Where a SMILES comes first, the peptide text is derived from it.

B1: HARP: angiogenic heparin binding growth factor, mature protein of 136 or 139 amino acids (protein, UniProt P21246 33-168, looked up)
Pleiotrophin: GKKEKPEKKVKKSDCGEWQWSVCVPTSGDCGLGTREGTRTGAECKQTMKTQRCKIPCNWKKQFGAECKYQFQAWGECDLNTALKTRTGSLKRALHNAECQKTVTISKPCGKLTKPKPQAESKKKKKEGKKQEKMLD

How the values were obtained:
[1] = tested on: endothelial cells which have invaded the Matrigel; assay: In vivo Matrigel angiogenesis model, substance used alone; set-up: species or system Swiss mice; details: day 7; for effect on angiogenesis when peptide used alone: peptide 1 μM alone in Matrigel; for increase in the number of endothelial cells by comparison with Matrigel used by itself: HARP 5 nM or FGF-2 10 nM in Matrigel
Protocol: (§1) FIG. 6 represents the inhibition by the HARP peptides 13-39 and 65-97 of the angiogenesis induced by HARP in an in vivo model. Three hundred microlitres of Matrigel® incubated with 5 nM of HARP in the presence or absence of the HARP peptides 13-39 and 65-97 used at a concentration of 1 μM are injected subcutaneously into a mouse. The control of the experiment is achieved using FGF-2. Seven days later the mice are sacrificed and the Matrigel® is removed. Sections having a thickness of 8 μM are produced. The sections are then stained with Trichrome from Gomori. The number of cells which have invaded the Matrigel® is quantified by image analysis with NIH software. The results represent the mean value of an analysis of 7 sections per mouse (n=4 mice/group). The bars represent the standard margins for error (**, p<0.01).
This experiment was carried out using an in vivo angiogenesis model in mice. This experimental model consists in injecting Matrigel® containing a substance to be analysed for its angiogenesis stimulating or inhibiting properties. Four Swiss mice (Janvier, Genest St Isle, France) per group are injected with 300 μl of Matrigel® previously incubated with either 5 nM of HARP, 1 μM of HARP peptide 13-39 or 65-97, or with a mixture of HARP (5 nM) and HARP peptides 13-39 or 65-97 (1 μM). The control of the specificity of the inhibition is carried out using another angiogenic factor, FGF-2, tested either by itself at a concentration of 10 nM or supplemented by the HARP peptides 13-39 or 65-97 used at a concentration of 1 μM.
The mice are sacrificed seven days after the injection of the Matrigel®. This latter is removed and frozen in liquid nitrogen. Sections 8 μM thick are then effected with a cryostat. The sections are then stained with Trichrome from Gomori. The number of endothelial cells which have invaded the Matrigel® is quantified by image analysis using NIH imaging software.

[2] = tested on: angiogenesis induced by FGF-2; assay: In vivo Matrigel angiogenesis model, angiogenesis induced by FGF-2 (specificity control); set-up: species or system Swiss mice; details: peptide 1 μM with FGF-2 10 nM in Matrigel; day 7
Protocol: as §1
(§2) This experiment was carried out using an in vivo angiogenesis model in mice. This experimental model consists in injecting Matrigel® containing a substance to be analysed for its angiogenesis stimulating or inhibiting properties. […]
(§3) The mice are sacrificed seven days after the injection of the Matrigel®. […] The number of endothelial cells which have invaded the Matrigel® is quantified by image analysis using NIH imaging software.

[3] = tested on: angiogenesis induced by HARP; assay: In vivo Matrigel angiogenesis model, angiogenesis induced by HARP; set-up: species or system Swiss mice; details: peptide 1 μM with HARP 5 nM in Matrigel, subcutaneous; day 7
Protocol: as §1, §2, §3

[4] = tested on: NIH 3T3 cells stimulated by HARP; details: 24 h, 10 μM
Protocol: After 24 hours' incubation the cellular proliferation is estimated by measurement of the tritiated thymidine incorporated by the cells.
Fibroblast cells of type NIH 3T3 are cultured at a density of 3×10^4 cells per cm^2 in DMEM culture medium supplemented with 10% of foetal calf serum. […] After this period of incubation, 0.5 μCi of [methyl-^3H]thymidine is added and 6 hours afterwards the cells are fixed by a 10% solution of trichloroacetic acid. The radioactivity incorporated by the cells is then counted by liquid scintillation after having effected a cell lysis with a solution of sodium hydroxide at a concentration of 0.1 N.

[5] = tested on: PC3 cells (line resulting from prostate cancer); assay: Tumour growth after injection of PC3 cells into nude mice; type: in vivo; details: 5 mg/kg daily injection in the region of the tumour
Protocol: Two million PC3 cells are injected into groups of 5 nude mice treated or not by daily injection in the region of the tumour with PBS (control) or with the HARP peptide 111-136 at a concentration of 5 mg/kg. The tumour growth for each group of animals is evaluated by measurement of the size of the tumour on day 9, 13, 16, 20, 23 and 27.
The capacity of the peptide P111-136 (SEQ ID NO: 4) to inhibit tumour angiogenesis has been tested by inducing tumour growth by injection of PC3 cells into nude mice in the presence or absence of peptide P111-136. 2×10^6 PC3 cells are injected into groups of 5 nude mice (nude/nude, Laboratoire IFFA CREDO) treated or not by injection in the region of the tumour of 100 μl per day of a solution of PBS (control group) or by a solution of peptide P111-136 diluted in PBS at a concentration of 5 mg/kg. On day 9, 13, 16, 20, 23 and 27 the size of the tumour is measured with the aid of a calliper gauge. The results are presented in FIG. 3 and indicate that the HARP peptide 111-136 used at a dose of 5 mg per kg induces an inhibition of the growth of the tumours.

[6] = tested on: endothelial cells in the tumour (PC3); assay: Tumour angiogenesis in PC3 tumours of nude mice (isolectin B4 staining of endothelial cells, image analysis); type: in vivo; details: day 27; 5 mg/kg daily injection in the region of the tumour
Protocol: Two million PC3 cells are injected into groups of mice treated or not by daily injection in the region of the tumour with PBS (control) or with the peptide 111-136 at a concentration of 5 mg/kg. The mice are sacrificed on day 27. The quantification of the angiogenesis is effected on a section after immunohistological analysis using isolectine Bandeiraea Simplicifolia as a specific marker of the endothelial cells and image analysis. The values presented in the histogram represent the mean value obtained by analysing three independent sections resulting from each of six tumours obtained in each condition.
On day 27, the tumours are removed and freezing sections of 5 μm are produced. […] This lectin is then detected by immunomarking with the aid of a sandwich of specific antibodies marked with alkaline phosphatase. After incubation with a substrate of alkaline phosphatase (Vector Red substrate), the endothelial cells are stained red. The quantification of the number of endothelial cells in the tumour is carried out by image analysis (NIH image) by analysing the 6 tumours on 3 independent sections of one and the same tumour.

[7] = Bernard-Pierrot et al 2002; cited from earlier work
[8] = molecular target: anaplastic lymphoma kinase (ALK) (Homo sapiens, UniProt Q9UM73); details: high affinity tyrosine kinase receptor; Stoica et al, 2001; cited from earlier work
Sequence of anaplastic lymphoma kinase (ALK) (Q9UM73 19-1620, species assumed): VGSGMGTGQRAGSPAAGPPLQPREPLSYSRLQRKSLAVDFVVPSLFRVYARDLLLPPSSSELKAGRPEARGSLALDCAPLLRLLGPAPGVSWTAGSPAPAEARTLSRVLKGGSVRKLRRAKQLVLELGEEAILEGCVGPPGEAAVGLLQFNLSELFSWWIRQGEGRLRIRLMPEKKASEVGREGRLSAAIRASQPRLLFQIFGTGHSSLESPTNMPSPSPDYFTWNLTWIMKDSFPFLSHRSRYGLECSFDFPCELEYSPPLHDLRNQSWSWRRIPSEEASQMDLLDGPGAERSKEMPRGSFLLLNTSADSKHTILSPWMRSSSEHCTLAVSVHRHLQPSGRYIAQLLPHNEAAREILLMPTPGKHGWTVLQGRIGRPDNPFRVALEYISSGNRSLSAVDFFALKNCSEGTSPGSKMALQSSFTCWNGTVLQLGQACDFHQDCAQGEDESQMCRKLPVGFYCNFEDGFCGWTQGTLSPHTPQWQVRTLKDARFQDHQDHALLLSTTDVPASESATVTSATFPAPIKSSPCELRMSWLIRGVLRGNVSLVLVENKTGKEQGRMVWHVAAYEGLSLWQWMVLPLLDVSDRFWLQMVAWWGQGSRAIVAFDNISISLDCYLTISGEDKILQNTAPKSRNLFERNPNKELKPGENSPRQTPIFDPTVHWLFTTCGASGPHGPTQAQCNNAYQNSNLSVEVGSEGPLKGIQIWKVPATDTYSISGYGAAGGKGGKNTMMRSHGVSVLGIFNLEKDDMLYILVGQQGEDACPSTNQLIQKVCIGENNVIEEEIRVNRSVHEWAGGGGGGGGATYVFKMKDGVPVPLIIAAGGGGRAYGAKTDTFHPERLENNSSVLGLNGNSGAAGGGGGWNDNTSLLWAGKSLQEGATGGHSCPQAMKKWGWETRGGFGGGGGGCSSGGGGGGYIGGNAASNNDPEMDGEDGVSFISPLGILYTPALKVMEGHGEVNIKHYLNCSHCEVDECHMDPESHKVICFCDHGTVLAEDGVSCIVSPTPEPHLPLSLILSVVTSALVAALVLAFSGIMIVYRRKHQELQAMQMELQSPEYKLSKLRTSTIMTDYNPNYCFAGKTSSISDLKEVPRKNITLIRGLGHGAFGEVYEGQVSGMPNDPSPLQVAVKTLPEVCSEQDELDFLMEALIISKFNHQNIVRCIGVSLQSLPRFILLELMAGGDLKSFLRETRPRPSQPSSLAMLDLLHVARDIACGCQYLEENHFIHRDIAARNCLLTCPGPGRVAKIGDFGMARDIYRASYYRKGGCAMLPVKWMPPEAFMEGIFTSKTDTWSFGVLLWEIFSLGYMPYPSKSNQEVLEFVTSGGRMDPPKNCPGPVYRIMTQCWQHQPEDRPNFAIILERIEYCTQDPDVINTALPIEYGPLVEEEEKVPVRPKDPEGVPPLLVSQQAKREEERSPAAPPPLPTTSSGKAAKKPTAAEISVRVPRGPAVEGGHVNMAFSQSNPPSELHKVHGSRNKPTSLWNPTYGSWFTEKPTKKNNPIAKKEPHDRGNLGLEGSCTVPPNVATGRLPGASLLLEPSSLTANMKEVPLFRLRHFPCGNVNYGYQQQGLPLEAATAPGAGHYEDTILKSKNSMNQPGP

Molecule	effect on angiogenesis when peptide used alone [1]	effect on angiogenesis induced by FGF-2 [2]	effect on angiogenesis induced by HARP [3]	increase in the number of endothelial cells by comparison with Matrigel used by itself [1] [times]	also measured
CC(C)C[C@H](NC(=O)CNC(=O)[C@H](CS)NC(=O)[C@H](CC(=O)O)NC(=O)CNC(=O)[C@H](CO)NC(=O)[C@@H](NC(=O)[C@@H]1CCCN1C(=O)[C@@H](NC(=O)[C@H](CS)NC(=O)[C@@H](NC(=O)[C@H](CO)NC(=O)[C@H](Cc1c[nH]c2ccccc12)NC(=O)[C@H](CCC(N)=O)NC(=O)[C@H](Cc1c[nH]c2ccccc12)NC(=O)[C@H](CCC(=O)O)NC(=O)CNC(=O)[C@H](CS)NC(=O)[C@H](CC(=O)O)NC(=O)[C@@H](N)CO)C(C)C)C(C)C)[C@@H](C)O)C(=O)NCC(=O)N[C@H](C(=O)N[C@@H](CCCNC(=N)N)C(=O)N[C@@H](CCC(=O)O)C(=O)NCC(=O)N[C@H](C(=O)N[C@@H](CCCNC(=N)N)C(=O)N[C@H](C(=O)O)[C@@H](C)O)[C@@H](C)O)[C@@H](C)O [peptide 13-39] (H-SDCGEWQWSVCVPTSGDCGLGTREGTRT-OH; N-terminus and C-terminus assumed)	No significant effect	no effect	totally inhibit	–	inhibition of the HARP activity (induction of cell proliferation) [4]: 60%
CC(C)C[C@H](NC(=O)[C@H](C)NC(=O)[C@H](CCCNC(=N)N)NC(=O)[C@H](CCCCN)NC(=O)[C@H](CC(C)C)NC(=O)[C@H](CO)NC(=O)CNC(=O)[C@@H](NC(=O)[C@H](CCCNC(=N)N)NC(=O)[C@@H](NC(=O)[C@H](CCCCN)NC(=O)[C@H](CC(C)C)NC(=O)[C@H](C)NC(=O)[C@@H](NC(=O)[C@H](CC(N)=O)NC(=O)[C@H](CC(C)C)NC(=O)[C@H](CC(=O)O)NC(=O)[C@H](CS)NC(=O)[C@H](CCC(=O)O)NC(=O)CNC(=O)[C@H](Cc1c[nH]c2ccccc12)NC(=O)[C@H](C)NC(=O)[C@H](CCC(N)=O)NC(=O)[C@H](Cc1ccccc1)NC(=O)[C@H](CCC(N)=O)NC(=O)[C@H](Cc1ccc(O)cc1)NC(=O)[C@H](CCCCN)NC(=O)[C@H](CS)NC(=O)[C@H](CCC(=O)O)NC(=O)[C@H](C)N)[C@@H](C)O)[C@@H](C)O)[C@@H](C)O)C(=O)N[C@@H](Cc1c[nH]cn1)C(=O)N[C@@H](CC(N)=O)C(=O)N[C@@H](C)C(=O)O [peptide 65-97] (H-AECKYQFQAWGECDLNTALKTRTGSLKRALHNA-OH; N-terminus and C-terminus assumed)	No significant effect	no effect	totally inhibit	–	–
FGF-2: another angiogenic factor, used as control of the specificity of the inhibition	–	–	–	5.8	–
KLTKPKPQAESKKKKKEGKKQEKMLD (listed as Homo sapiens) [peptide 111-136, C-terminal peptide fragment of HARP, amino acids 111-136, acts on the ALK receptor]	–	–	–	–	rate of tumour growth, times less than in untreated mice ([5]; PC3 in nude mice): 4 times; mean size of the tumours smaller than in untreated mice ([5]; day 27): 80%; reduction in the intra-tumoral vessels [6]: 55%; mitogenic / angiogenic activity [7]: neither mitogenic n or angiogenic
B1	–	–	–	3	Kd [8]: 0.05 nM
